Laboratory results as given in patent US20030212014A1 (priority 2000, published 2003).
Where two headings read alike, the source gives them in different places.

Tests used:
HUVEC [1] = test: Serine incorporation into ceramide in HUVEC; type: cell-based, human; conditions: 30 mM glucose + AICAR, 24 hr
Method: To assess whether alterations in ceramide contributed to these events, and particularly the decrease in membrane potential, we attempted to measure ceramide content. Ceramide was not detectable in HUVEC incubated with either 5 or 30 mM glucose. […] Consistent with these findings, we found no increase in serine incorporation into ceramide, (presumably a measure of de novo synthesis) in cells incubated for 24 hr in 30 vs 5 mM glucose.

HUVEC [2] = type: cell-based, human
Method: (§1) As previously mentioned, AMPK increases fatty acid oxidation in both liver and skeletal muscle by phosphorylation and inhibition of acetyl CoA carboxylase. We wanted to test if this effect of AMPK is also present in endothelial cells. […] A significant decrease was seen within the first 30 minutes of incubation (FIG. 3). ACC activity went down from 163.1±27.0 pmol/min/mg protein at 0 minutes to 61.1±1.1 at 30 minutes (P=0.004), 73.0 ±12.4 at 60 minutes and 51.2±5.0 at 120 minutes (P=0.015). As previously described, ACC activation increases malonyl CoA levels and this in turn inhibits CPT1, the enzyme responsible for the uptake of long chain fatty acyl CoA into the mitochondria where they are oxidized. […] Fatty acid oxidation was measured by the formation of titrated water (^3H2O) in cells incubated with ^3H-palmitate. A significant increase was seen only after a 2-hour incubation (P=0.002). […] (See Table 1A, FIG. 6.) Glucose and fatty acid oxidation, glucose uptake and lactate and pyruvate release were determined in the absence and presence of […] carnitine.
To see if this also occurred in endothelial cells, glucose uptake was measured (Table 1).
In addition, lactate and pyruvate production were measured to see if the rate of glycolysis had changed.
This was not attributable to an increase in glucose oxidation. Glucose oxidation was measured by determining labeled CO2 production when the cells are incubated with ^14C-(U) glucose.
As a result their rate of oxidation can be greatly underestimated unless the tissue is prelabeled with fatty acid. […] Thus, when the HUVEC were pre-incubated with radioactive palmitate for 24 hours prior to ^14CO2 collection (to label the intracellular lipid pools), the measured rate of fatty acid oxidation was increased by 5 fold during the second hour of a two-hour incubation with radioactive palmitate added to the medium. […] (See Table 1A.)

high-fat fed (HFF) rats [3] = test: Acute effects of a single AICAR injection in high-fat fed (HFF) rats; type: in vivo, rat
Method: Plasma parameters: This experiment was performed on HFF rats under conscious conditions following 5-7 hours of fasting. After catheters were connected to blood sampling syringes, the animals were allowed to rest for 40-50 min. Two blood samples were taken 20 min. apart, constituting the basal samples (time 0). […] Blood samples were collected at 30, 60, 90 and 120 min. after the injection. After the last sample was taken, the animals were euthanized. […] Tissue parameters: The glycogen and triglyceride content of two types of skeletal muscle and liver at the end of the experiment were determined (Table 9, FIG. 27).

[4] = system: acetyl CoA carboxylase (ACC); test: Acetyl CoA carboxylase activity in HUVEC incubated with AICAR; type: cell-based, human; conditions: 2 mM AICAR
Method: as §1
The results described in other tissues are seen in the endothelial cells. […] The presence of ACC is shown by the substantial increase in enzyme activity when 10 mM citrate is present vs. 0 mM citrate. Citrate allosterically activates ACC, but not other enzymes, such as propionyl CoA carboxylase and pyruvate carboxylase, which could also use HCO3^−as substrate. Thus, the increase in radioactive HCO3^−use in the presence of citrate is a reflection of ACC activity only. Similar to AMPK, the activity of ACC is lower in endothelial cells than in skeletal muscle and liver.

high-fat fed (HFF) rats [5] = test: Euglycemic hyperinsulinemic clamp in HFF rats 24 h after AICAR injection; type: in vivo, rat
Method: They were then returned to their cages and given a high-fat meal. […] To avoid the possible effects of a reduced caloric intake, the HFF-Con animals were pair-fed with HFF-AIC rats. 24 h after the injection, and after a 5-7 h fasting period, the rats were submitted to an euglycemic hyperinsulinemic clamp, to determine the whole body insulin sensitivity.

rats = test: Acute effects of AICAR on blood and plasma metabolites and hormones in rats; type: in vivo, rat
[6] = system: liver ACC activity and malonyl CoA; test: ACC activity and malonyl CoA in liver two hours after AICAR injection; type: in vivo, rat
[7] = HFF rats, 250 mg/kg s.c., vs HFF-Con
[8] = clamp 24 h after 250 mg/kg AICAR

For `NC(=O)c1ncn([C@@H]2O[C@H](CO)[C@@H](O)[C@H]2O)c1N` [AICAR, 5-aminoimidizole-4-carboxamide riboside], the “serine incorporation into ceramide” value (HUVEC [1]) was 9.0±1.2, the fatty acid oxidation (HUVEC [2]; 50 pM carnitine added, 3H-palmitate, 2-hour incubation) was “increased significantly” and the “glucose oxidation (labeled CO2 production)” value (HUVEC [2]; 14C-(U) glucose, after two hours) was “increased significantly”. For the same molecule, the lactate production (HUVEC [2]; AICAR incubation, 2 hours) was “even more obvious decrease”, the pyruvate production (HUVEC [2]; AICAR incubation, 2 hours) was “slight, but significant decrease” and the “ATP generated accounted for by fatty acid oxidation” value (HUVEC [2]; HUVEC incubated 2 hrs in 6 mM glucose with AICAR) was roughly 40%. For the same molecule, the fatty acid oxidation (HUVEC [2]; absence of carnitine, 2 hours) was “did not show any changes”, the “levels of ATP measured by bioluminescence” value (HUVEC [2]; after AICAR incubation) was “rose” and the glucose uptake (HUVEC [2]; during the AICAR incubation) was “decreased”. The “calculated rate of ATP generation” value (HUVEC [2]; no prelabeling (Table 1)) was “significantly diminished”, the “ATP generated accounted for by fatty acid oxidation” value (HUVEC [2]; second hour of two-hour incubation, 24 hours prelabeling with palmitate, with AICAR) was 60% and the “changes in tissue triglyceride content” value (high-fat fed (HFF) rats [3]; 2 h after the injection) was “not significant”. The “increase in glycogen content in white muscle” value (high-fat fed (HFF) rats [3]; 2 h after the injection) was 16%, the “reduction in liver glycogen” value (high-fat fed (HFF) rats [3]; 2 h after the injection) was 52% and the “duration of decrease in plasma glucose” value (high-fat fed (HFF) rats [3]; HFF rats, 250 mg/kg s.c.) was “at least 60 minutes”. For the same molecule, the “plasma FFA” value (high-fat fed (HFF) rats [3]; HFF rats, 250 mg/kg s.c.) was “remained unchanged”, the “time to decrease in plasma glucose” value (high-fat fed (HFF) rats [3]; HFF rats, 250 mg/kg s.c.) was no more than 30 min and the plasma glucose (high-fat fed (HFF) rats [3]; HFF rats, 250 mg/kg s.c., 30-120 min post-injection) was “decrease”. The plasma glycerol (high-fat fed (HFF) rats [3]; [7]) was “increase”, the plasma triglyceride levels (high-fat fed (HFF) rats [3]; [7]) was “decrease” and the plasma insulin (high-fat fed (HFF) rats [3]; HFF rats, 250 mg/kg s.c., vs saline) was “decrease”. For the same molecule, the ACC activity ([4]; at 30 minutes) was 61.1±1.1 pmol/min/mg protein, the ACC activity ([4]; at 60 minutes) was 73.0 ±12.4 pmol/min/mg protein and the ACC activity ([4]; at 120 minutes) was 51.2±5.0 pmol/min/mg protein. For the same molecule, the “levels of muscle triglycerides or long chain fatty acyl CoA (LCFACoA)” value (high-fat fed (HFF) rats [5]; after clamp) was “no significant change”, the “decrease in liver malonyl-CoA” value (high-fat fed (HFF) rats [5]; after clamp, vs HFF-Con) was 21% and the “reduction of liver triglycerides accumulation” value (high-fat fed (HFF) rats [5]; after clamp, vs HFF-Con) was 33%. For the same molecule, the food eaten overnight (high-fat fed (HFF) rats [5]; after single 250 mg/kg s.c. injection, high-fat meal) was “minor reduction”, the “reduction of malonyl-CoA in red muscle” value (high-fat fed (HFF) rats [5]; after the clamp, vs HFF-Con) was 44% and the “basal plasma glucose (hyperglycemia caused by high-fat feeding)” value (high-fat fed (HFF) rats [5]; basal state, 24 h after AICAR) was “decreased the hyperglycemia”. The “other basal plasma parameters (insulin, FFA, triglycerides)” value (high-fat fed (HFF) rats [5]; basal state, vs HFF-Con) was “did not alter”, the Rd (high-fat fed (HFF) rats [5]; [8]) was “slight but not significant increase” and the “increase in glucose infusion rate (GIR)” value (high-fat fed (HFF) rats [5]; [8]) was 50%. For the same molecule, the HGO under insulin (high-fat fed (HFF) rats [5]; clamp 24 h after 250 mg/kg AICAR, p>0.05 vs. Chow) was “close to the normal value”, the “increase in Rg' (rate of glucose uptake) in white muscle” value (high-fat fed (HFF) rats [5]; clamp 24 h after AICAR) was 79% and the “Rg' in red muscle” value (high-fat fed (HFF) rats [5]; clamp 24 h after AICAR, p=0.085) was “tendency of increased”. For the same molecule, the “insulin-stimulated glucose incorporation into glycogen” value (high-fat fed (HFF) rats [5]; white and red muscle) was “significantly increased”, the blood glucose levels (rats; 250 mg/kg, 2-6 hours following administration) was “moderately diminished” and the blood lactate (rats; acute, high doses) was “increase”. The “plasma free fatty acid (FFA) levels” value (rats; acute, high doses) was “decrease”, the plasma leptin (rats; all doses studied, at 2 hrs) was “did not significantly alter” and the plasma triglycerides (rats; all doses studied, at 2 hrs) was “did not significantly alter”. The “dose at which maximal effect on liver ACC activity and malonyl CoA was observed” value [6] was 500 mg/kg, the “ACC activity in liver” value ([6]; 250 mg/kg) was “significantly diminished” and the “malonyl CoA concentration in liver” value ([6]; 250 mg/kg) was “significantly diminished”.
